Tested on: IL-1β
Assay: LPS-induced IL-1β secretion in THP-1 macrophage-like cells (ELISA)
Format: cell-based, human
Conditions: complexes 5 µM, prednisone 1 µM, 1 h pre-treatment, 24 h after LPS
Protocol: To determine the influence of the tested complexes on the TNF-α and IL-1β secretions and MMPs activity, macrophage-like cells derived from the THP-1 cell line were used. The cells were cultivated as above, but were split into 24-well microtitre plates to get a concentration of 100 000 cells/mL (1 mL/well) and the differentiation to macrophages was induced by phorbol myristate acetate (PMA) as described previously. Differentiated macrophages were pre-treated for 1 h with 5 µM solutions of the tested complexes or 1 µM prednisone dissolved in DMSO [the final DMSO concentration was 0.1% (v/v)] and with the 0.1% (v/v) DMSO solution itself (the experimental group called vehicle); the given concentrations of the compounds lack the cytotoxic effect. The inflammatory response was triggered by adding 1 µg/mL Escherichia coli 0111:B4 lipopolysaccharide (LPS) (Sigma-Aldrich, Germany) dissolved in water to pre-treated macrophages, control cells were without the LPS treatment. Each experiment was performed in triplicate. Macrophages, which were pre-treated with the tested compounds for 1 h, were incubated with LPS for the next 24 h. Then, the medium was collected and the concentrations of TNF-α and IL-1β were measured by an Instant ELISA kit (eBioscience, Austria) according to the manufacturer’s manual.

C[C@]12C=CC(=O)C=C1CC[C@@H]1[C@@H]2C(=O)C[C@@]2(C)[C@H]1CC[C@]2(O)C(=O)CO [prednisone, reference compound]
decrease of IL-1β secretion, factor in comparison with the vehicle-treated cells: 2.42 times
